In patent US20110039947A1, “SURFACE-MODIFIED NANOPARTICLES” (3M Innovative Properties Company, priority 2008, published 2011):

Assay: Pharmaceutical performance: Aerolizer DPI with Next Generation Pharmaceutical Impactor (NGI)
Type: physicochemical
Conditions: nominally 2 mg powder, NGI at 60 lpm for 4 seconds, respirable limit 4.5 micrometers
Protocol: Samples of micronized lactose and micronised budesonide powder were tested in addition to testing samples of nanoparticle-modified lactose and nanoparticle-modified budesonide powders. The NGI was coupled with a USP throat (United States Pharmacopeia, USP 24 <601>Aerosols, Metered Dose Inhalers, and Dry Powder Inhalers) and operated at a volumetric flow rate of 60 liters per minute (lpm) for a collection time of four seconds. A suitable coupler was affixed to the USP throat to provide an air-tight seal between the DPI device and the throat. For all testing, the stage cups of the NGI were coated with a surfactant to prevent particle bounce and re-entrainment. The amount of lactose or budesonide collected on each component of the NGI testing apparatus was determined by rinsing the component with a measured volume of an appropriate solvent and subjecting the rinsed material to high pressure liquid chromatography (HPLC) analysis with charged aerosol detection to determine lactose or budesonide concentration. Data that was returned from HPLC analysis was analyzed to determine the average amount of drug collected on the DPI and capsule, the USP throat, and on each component of the NGI per delivered dose. Using the individual component values, the respirable fraction and delivery efficiency were calculated for each powder sample. […]

O.OC[C@H]1O[C@@H](O[C@H]2[C@H](O)[C@@H](O)[C@@H](O)O[C@@H]2CO)[C@H](O)[C@@H](O)[C@H]1O [Comparative Example C4, α-Lactose monohydrate]
% Delivery Efficiency: 34% | % Respirable Fraction: 63%
